{"source": "patent US8392127B2", "about": "“Methods and gene expression signature for assessing growth factor signaling pathway regulation status” (Merck Sharp & Dohme Corp., priority 2008, dated 2013)", "key": {"[1]": {"test_system": "growth factor signaling pathway signature in MAXF-713", "experiment": "Growth factor signaling pathway signature score post/pre-dose ratio in xenografts", "type": "in vivo, NMRI female nu/nu mice", "settings": "24 hours after a single treatment, 500 μg/mouse ip", "method": "(§1) Animals of Groups 3 and 4 were sacrificed for sample collection when the tumors had volumes between 400 and 600 mm^3 and 24 hours after a single treatment with either the control vehicle (Group 3) or IGF1R (Group 4). Tumors were cut into two parts, snap frozen in liquid nitrogen and stored at −80° C. RNA was harvested from both vehicle-treated and MK0646-treated samples as previously described for hybridization to DNA oligonucleotide arrays.\n(§2) Regulation of the growth factor signaling pathway signature by MK-0646 was assessed by comparing mean gene expression profiles of MK0646 treated samples for each xenograft to the mean gene expression profile of the vehicle treated samples. The log(10) ratio of expression in the MK-0646 treated samples relative to the vehicle treated samples was calculated for every probe on the microarray. The growth factor signaling pathway signature score was calculated as the mean log(10) ratio of the genes in the “up” arm of the signature (see Table 5a) minus the mean log(10) ratio of the genes in the “down” arm of the signature (see Table 5b). A post/pre-dose ratio of the growth factor signaling pathway signature score was then calculated and compared to the tumor inhibition T/C ratio for each xenograft (see FIG. 34)."}, "[2]": {"test_system": "growth factor signaling pathway signature in LXFA-629", "experiment": "Growth factor signaling pathway signature score post/pre-dose ratio in xenografts", "type": "in vivo, NMRI female nu/nu mice", "settings": "24 hours after a single treatment, 500 μg/mouse ip", "method": "as §1, §2"}, "MAXF-713": {"test_system": "MAXF-713", "experiment": "Patient-derived tumor xenograft growth inhibition (T/C)", "type": "in vivo, NMRI female nu/nu mice", "settings": "500 μg/mouse ip once weekly"}, "SXF-1186": {"test_system": "SXF-1186", "experiment": "Patient-derived tumor xenograft growth inhibition (T/C)", "type": "in vivo, NMRI female nu/nu mice", "settings": "500 μg/mouse ip once weekly"}, "CSF-280": {"test_system": "CSF-280", "experiment": "Patient-derived tumor xenograft growth inhibition (T/C)", "type": "in vivo, NMRI female nu/nu mice", "settings": "500 μg/mouse ip once weekly", "text": "(§3) NMRI female nu/nu mice were subcutaneously implanted with patient-derived tumor xenografts: lung adenocarcinoma LXFA 526, LXFA 629, LXFA 677, LXFA 749 and LXFA 1012; squamous cell lung carcinoma LXFE, 211, LXFE 397, LXFE 409 and LXFE 1422; small cell lung cancer LXFS 538, LXFS 573 and LXFS 615; colorectal carcinoma CXF 94LX, CXF 158, CXF 280, CXF 975, CXF 1103 and CXF 1729; renal cell carcinoma RXF 393, RXF 423, RXF 631 and RXF 1220; gastric cancer GXF 97, GXF 251 and GXF 281; ovarian cancer OVXF 550, OVXF 899, OVXF 1023, OVXF 1353 and OVXF 1544 (Oncotest GmbH, Freiburg, Germany). All tumor xenografts were derived from surgical specimen from human patients and directly transplanted into nude mice for propagation. Tumor xenografts were passaged in nude mice until establishment of a stable growth pattern. Master stocks of early passage xenografts were frozen in liquid nitrogen. A particular master stock batch is typically only used for about 20 further passages. Tumor fragments were obtained from xenografts in serial passage in nude mice. After removal of tumors from donor mice, they were cut into fragments (1-2 mm diameter) and placed RPMI 1640 culture medium until subcutaneous implantation. Recipient mice were anesthetized by inhalation of isoflurane. Tumor fragments (1-2 per mouse) were transplanted subcutaneously into the backs of recipient mice. Animals carrying at least one tumor of appropriate size (mean tumor diameter 6-8 mm, minimum acceptable tumor diameter 5 mm) were considered for randomization into treatment and vehicle control groups.\n(§4) MK-0646 IGF1R monoclonal antibody (U.S. Pat. No. 7,241,444) was diluted to a final dosing concentration of 2 mg/mL with 20 mM—L Histidine, 150 mM NaCl, 0.5% PS—80 w/w pH 6.5 at ratio of 1:5.65. The diluted treatment solution was administered at an application volume of 250 μl/mouse for the dose level of 500 μg/mouse. The control vehicle was 20 mM-L Histidine, 150 mM NaCl, 0.5% PS-80 w/w, pH6.5. Vehicle was administered at 250 μl/mouse. IGF1R monoclonal antibody and control vehicle were injected intraperitoneally. Test and control mice were injected once a week on the same days. The number of injections ranged from 2 to 7, depending on the duration of the experiment. Experiments were terminated when one of the limits set by the German animal regulations was met.\n(§5) Each experiment consisted of a vehicle control group (Group 1) receiving 20 mM-L Histidine, 150 mM NaCl, 0.5% PS-80 w/w, pH6.5 at 250 μL/mouse ip once weekly and one group treated with IGF-1R at 500 μg/mouse ip once weekly (Group 2). For sample collection purposes each experiment also comprised two groups (Groups 3 and 4) receiving a single therapy either with the vehicle or with IGF-1R at the same dose levels. According to the study protocol the group size in the efficacy groups (Groups 1 and 2) was 7 mice while the sample collection groups (Group 3 and 4) contained 3 nude mice each. In the experiments with CXF 1103 and RXF 631 bearing mice the efficacy groups contained 8 mice and group size in the efficacy groups of the experiment with LXFE 211 bearing nude mice was 9. […]\n(§6) Relative volumes of individual tumors (RTVs) for Day x were calculated by dividing the individual tumor volume on Day X (Tx) by the individual volume of the same tumor on Day 0 (T0) multiplied by 100%.\n(§7) [formula] Group tumor volumes were expressed as the median RTV of all tumors in a group (group median RTV). […]"}, "LXFA-629": {"test_system": "LXFA-629", "experiment": "Patient-derived tumor xenograft growth inhibition (T/C)", "type": "in vivo, NMRI female nu/nu mice", "settings": "500 μg/mouse ip once weekly", "text": "as §3, §4, §5, §6, §7"}, "CSF-94LX": {"test_system": "CSF-94LX", "experiment": "Patient-derived tumor xenograft growth inhibition (T/C)", "type": "in vivo, NMRI female nu/nu mice", "settings": "500 μg/mouse ip once weekly", "text": "as §3, §4, §5, §6, §7"}, "CSF-1729": {"test_system": "CSF-1729", "experiment": "Patient-derived tumor xenograft growth inhibition (T/C)", "type": "in vivo, NMRI female nu/nu mice", "settings": "500 μg/mouse ip once weekly", "text": "as §3, §4, §5, §6, §7"}, "OVXF-899": {"test_system": "OVXF-899", "experiment": "Patient-derived tumor xenograft growth inhibition (T/C)", "type": "in vivo, NMRI female nu/nu mice", "settings": "500 μg/mouse ip once weekly", "text": "as §3, §4, §5, §6, §7"}, "[3]": {"test_system": "growth factor signaling pathway signature in GTL-16", "experiment": "Growth factor signaling pathway signature score after MK-2461 in cell lines (microarray)", "type": "cell-based", "settings": "1 μM, 6 and 12 hours post-treatment", "method": "(§8) Ten cell lines with alternations of the PI3K/MAPK pathway components were identified (see Table 6), including two cell lines with amplification of cMET (EBC-1 and GTL-16). […] To assess the regulation of the growth factor signaling pathway signature in these cells, these cell lines were treated with vehicle or 1 μM MK-2461. The cell lines were profiled at 6 and 12 hours post-treatment. Duplicate cultures were seeded in 6-well plates for each treatment group. Cell were ˜70% confluent at time of collection. Experiments were performed in duplicate.\n(§9) RNA was harvested from both vehicle-treated and compound treated cells, and regulation of the growth factor signaling pathway by MK-2461 was assessed by comparing gene expression profiles of MK-2461 treated cells to vehicle treated cells. For every probe on the microarray, the log(10) ratio of expression in the MK-2461 treated samples relative to the cell line-matched vehicle treated samples was calculated. The growth factor signaling pathway signature score was calculated as the mean log(10) ratio of the genes in the “up” arm of the signature (see Table 5a) minus the mean log(10) ratio of the genes in the “down” arm of the signature (see Table 5b)."}, "[4]": {"test_system": "growth factor signaling pathway signature in EBC-1", "experiment": "Growth factor signaling pathway signature score after MK-2461 in cell lines (microarray)", "type": "cell-based", "settings": "1 μM, 6 and 12 hours post-treatment", "method": "as §8, §9"}, "EBC-1": {"test_system": "EBC-1", "experiment": "Sensitivity to cell killing by cMET inhibitor MK-2461", "type": "cell-based"}, "GTL-16": {"test_system": "GTL-16", "experiment": "Sensitivity to cell killing by cMET inhibitor MK-2461", "type": "cell-based"}, "EBC-1 tumor cells": {"test_system": "EBC-1 tumor cells", "experiment": "EBC-1 xenograft tumor growth", "type": "in vivo, HRLN female nu/nu mice", "method": "(§10) HRLN female nu/nu mice were subcutaneously implanted with 5×10^6 EBC-1 tumor cells. Tumors were allowed to grow an average size of 450-500 mg before treatment was administered. Xenografts were treated with vehicle or 11, 34, or 112 mpk of MK-2461 (n=4 for each treatment group). […] Treatment was administered PO BID for 7 days. Tumors were harvested 2 hours after the final dose, as this was the estimated time to achieve Cmax."}, "HT29": {"test_system": "HT29", "experiment": "Sensitivity to cell killing by cMET inhibitor MK-2461", "type": "cell-based"}, "HCT15 (or AGS)": {"test_system": "HCT15 (or AGS)", "experiment": "Sensitivity to cell killing by cMET inhibitor MK-2461", "type": "cell-based"}, "A549": {"test_system": "A549", "experiment": "Sensitivity to cell killing by cMET inhibitor MK-2461", "type": "cell-based"}, "Colo205": {"test_system": "Colo205", "experiment": "Sensitivity to cell killing by cMET inhibitor MK-2461", "type": "cell-based"}, "[5]": {"test_system": "growth factor signaling pathway signature in EBC-1 xenografts", "experiment": "Growth factor signaling pathway signature score in EBC-1 xenografts (microarray)", "type": "in vivo, HRLN female nu/nu mice", "settings": "112 mpk PO BID for 7 days; tumors harvested 2 hours after the final dose", "method": "as §10\nRNA was harvested from both vehicle-treated and compound-treated samples. Regulation of the growth factor signaling pathway signature by MK-2461 was assessed by comparing gene expression profiles of MK-2461 treated samples to the mean gene expression profile of the 4 vehicle treated samples. The log(10) ratio of expression in the MK-2461 treated samples relative to the mean of the vehicle treated samples was calculated for every probe on the microarray. The growth factor signaling pathway signature score was calculated as the mean log(10) ratio of the genes in the “up” arm of the signature (see Table 5a) minus the mean log(10) ratio of the genes in the “down” arm of the signature (see Table 5b)."}, "HCT116": {"test_system": "HCT116", "experiment": "Sensitivity to cell killing by cMET inhibitor MK-2461", "type": "cell-based"}}, "note": "“Also recorded” adds a separate entry of the source. Like-named read-outs stand apart in the source and are kept apart here."}
{"compound": "MK-0646: IGF1R monoclonal antibody (U.S. Pat. No. 7,241,444)", "values": [{"measurement": "growth factor signaling score post/pre-dose ratio", "setting": "[1]", "result": "low"}, {"measurement": "growth factor signaling score post/pre-dose ratio", "setting": "[2]", "result": "low"}, {"measurement": "tumor inhibition (T/C ratio)", "setting": "MAXF-713", "result": "strong tumor inhibition; also recorded: most tumor inhibition"}, {"measurement": "tumor inhibition (T/C ratio)", "setting": "SXF-1186", "result": "moderate response"}, {"measurement": "tumor inhibition (T/C ratio)", "setting": "CSF-280", "result": "moderate response"}, {"measurement": "tumor inhibition (T/C ratio)", "setting": "LXFA-629", "result": "strong tumor inhibition; also recorded: most tumor inhibition"}, {"measurement": "tumor inhibition (T/C ratio)", "setting": "CSF-94LX", "result": "strong tumor inhibition"}, {"measurement": "tumor inhibition (T/C ratio)", "setting": "CSF-1729", "result": "moderate response"}, {"measurement": "tumor inhibition (T/C ratio)", "setting": "OVXF-899", "result": "strong tumor inhibition"}]}
{"compound": "CN(C[C@@H]1COCCO1)S(=O)(=O)Nc1ccc2ccc3ncc(-c4cnn(C)c4)cc3c(=O)c2c1", "note": "[MK-2461, N-[(2R)-1,4-dioxan-2-ylmethyl]-N-methyl-N′-[3-(1-methyl-1H-pyrazol-4-yl)-5-oxo-5H-benzo[4,5]cyclohepta[1,2-b]pyridin-7-yl]sulfamide]", "values": [{"measurement": "inhibition of the growth factor signaling pathway signature", "setting": "[3]", "result": "Inhibition of the growth factor signaling pathway signature was observed; also recorded: inhibition of the growth factor signaling pathway was only observed"}, {"measurement": "inhibition of the growth factor signaling pathway signature", "setting": "[4]", "result": "Inhibition of the growth factor signaling pathway signature was observed; also recorded: inhibition of the growth factor signaling pathway was only observed"}, {"measurement": "sensitive to MK2461", "setting": "EBC-1", "result": "sensitive to cell killing"}, {"measurement": "sensitive to MK2461", "setting": "EBC-1; listed as MK2461", "result": "✓"}, {"measurement": "sensitive to MK2461", "setting": "GTL-16", "result": "sensitive to cell killing"}, {"measurement": "sensitive to MK2461", "setting": "GTL-16; listed as MK2461", "result": "✓"}, {"measurement": "effect on tumor growth", "setting": "EBC-1 tumor cells; 11 mpk PO BID", "result": "no effect on tumor growth"}, {"measurement": "effect on tumor growth", "setting": "EBC-1 tumor cells; 34 mpk PO BID", "result": "no effect on tumor growth"}, {"measurement": "efficacy in xenografts", "setting": "EBC-1 tumor cells; 112 mpk", "result": "only dose that resulted in efficacy"}, {"measurement": "tumor growth inhibition compared to vehicle treatment", "setting": "EBC-1 tumor cells; 112 mpk PO BID", "result": "approximately 30%"}, {"measurement": "sensitive to MK2461", "setting": "HT29", "result": "no"}, {"measurement": "sensitive to MK2461", "setting": "HCT15 (or AGS)", "result": "no"}, {"measurement": "sensitive to MK2461", "setting": "A549", "result": "no"}, {"measurement": "sensitive to MK2461", "setting": "Colo205", "result": "no"}, {"measurement": "inhibition of the growth factor signaling pathway signature in xenografts", "setting": "[5]", "result": "Inhibition of the growth factor signaling pathway signature was only observed"}, {"measurement": "sensitive to MK2461", "setting": "HCT116", "result": "no"}]}
